This note sets out measurements from US7989625B2, “Thienopyridines” (Merck Patent GmbH, priority 2005, dated 2011).

pIC50: −log10 of the molar value.

The assay has as its target T1, human HSP90α (Homo sapiens, UniProt P07900).
T1 construct: host or cells: E. coli
Briefly: radioligand filter binding test, competition with [3H]17AAG for HSP90. The settings on record: recombinant human HSP90α, [3H]17AAG 0.08 μM, 22° C., 30 min. The text has this:
The binding of geldanamycin or 17-allylamino-17-demethoxygeldanamycin (17AAG) to HSP90 and competitive inhibition thereof can be utilised in order to determine the inhibitory activity of the compounds according to the invention (Carreras et al. 2003, Chiosis et al. 2002).
In the specific case, a radioligand filter binding test is used. The radioligand used here is tritium-labelled 17-allylaminogeldanamycin, [3H]17AAG. This filter binding test allows a targeted search for inhibitors which interfere with the ATP binding site.
Recombinant human HSP90α (E. coli expressed, 95% purity); [3H]17AAG (17-allylaminogeldanamycin, [allylamino-2,3-^3H. Specific activity: 1.11×10^12 Bq/mmol (Moravek, MT-1717);
HEPES filter buffer (50 mM HEPES, pH 7.0, 5 mM MgCl2, BSA 0.01%) Multiscreen FB (1 μm) filter plate (Millipore, MAFBNOB 50).
The 96-well microtitre filter plates are firstly irrigated and coated with 0.1% of polyethylenimine.
The test is carried out under the following conditions: • Reaction temperature 22° C. • Reaction time: 30 min., shaking at 800 rpm • Test volume: 50 μl • Final Concentrations: • 50 mM HEPES HCl, pH 7.0, 5 mM MgCl2, 0.01% (w/v) BSA • HSP90:1.5 μg/assay • [3H]17AAG: 0.08 μM.
At the end of the reaction, the supernatant in the filter plate is removed by suction with the aid of a vacuum manifold (Multiscreen Separation System, Millipore), and the filter is washed twice.
The filter plates are then measured in a beta counter (Microbeta, Wallac) with scintillator (Microscint 20, Packard).
“% of control” is determined from the “counts per minutes” values and the IC-50 value of a compound is calculated therefrom.

As for `COc1ccc(-c2c(C#N)c(N)nc3sc(C(N)=O)c(N)c23)cc1NC(=O)c1ccc(C(F)(F)F)cc1` [Compound A35, 2-aminocarbonyl-3,6-diamino-5-cyano-4-[4-methoxy-3-(4-trifluoromethylbenzoylamino)phenyl]thieno[2,3-b]pyridine], the pIC50 is 5.23.

On to `COc1ccc(-c2c(C#N)c(N)nc3sc(C(N)=O)c(N)c23)cc1NC(=O)c1ccccc1C(F)(F)F` [Compound A36, 2-aminocarbonyl-3,6-diamino-5-cyano-4-[4-methoxy-3-(2-trifluoromethylbenzoylamino)phenyl]thieno[2,3-b]pyridine], for which the pIC50 is 4.96.

Turning to `COc1ccc(-c2c(C#N)c(N)nc3sc(C(N)=O)c(N)c23)cc1NC(=O)C(C)C` [Compound A38, 2-aminocarbonyl-3,6-diamino-5-cyano-4-[4-methoxy-3-(prop-2-ylcarbonylamino)phenyl]thieno[2,3-b]pyridine], the pIC50 was 5.26.

With `COc1ccc(-c2c(C#N)c(N)nc3sc(C(N)=O)c(N)c23)cc1NC(=O)c1ccncc1` [Compound A37, 2-aminocarbonyl-3,6-diamino-5-cyano-4-[4-methoxy-3-(pyridin-4-ylcarbonylamino)phenyl]thieno[2,3-b]pyridine], the pIC50 was 5.72.

A word on the pIC50: it is the IC50 on a negative log10 scale, so that one unit is a factor of ten.
